# According to ChEMBL document CHEMBL1201862, “PubChem BioAssay data set” (2004):
# The source made the active and inactive calls.
# Key:
# [1] = inhibitors of firefly luciferase expression or activity, dose response, H4 neuroglioma cells, luminescence (AID 1990); assay type: functional, cell-based
# [2] = Luminescence Cell-Based Dose Response HTS to Identify Inhibitors of 5'UTR Stem-Loop Driven Prion Protein mRNA Translation in H4 Neuroglioblastoma Cells. [Related pubchem assays: 1827 (Project Summary), 1813 (Primary HTS)]; assay type: functional
# [3] = inhibitors of SNCA 5'UTR-driven reporter translation, confirmation, H4 neuroglioma cells, luminescence (AID 1988); assay type: functional, cell-based
# BJ [4] = experiment: cells; assay type: functional, cell-based; conditions: Homo sapiens
# BJ [5] = experiment: cytotoxicity toward BJ-TERT fibroblasts, dose response, cell-based, RAS-independent, luminescence (AID 1933); assay type: functional; conditions: Homo sapiens
# BJ [6] = experiment: cytotoxicity toward BJ-TERT-LT-ST fibroblasts, dose response, cell-based, RAS-independent, luminescence (AID 1935); assay type: functional; conditions: Homo sapiens;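 also: BJ fibroblasts immortalized with TERT plus LT and ST oncogenes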
# [7] = cytotoxicity toward DRD oncogenic fibroblasts, dose response, cell-based, non-viral oncogenic, luminescence (AID 1934); assay type: functional; conditions: Homo sapiens
# H9c2 = experiment: cells; assay type: functional, cell-based; conditions: Rattus norvegicus, H9c2, Myocardium;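 also: confirmatory concentration-response retest of ultra-high-throughput screening hits for modulation of myocardial damage; cell death induced by hydrogen peroxide oxidative stress; compound pretreatment for 60 min then peroxide exposure for 2 h; potency is for protecting the cells against peroxide damage rather than for killing them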
# [8] = target: Heat shock protein HSP 90-alpha (Homo sapiens, UniProt P07900); assay type: functional, organism-based
# [9] = Luminescence Cell-Based Dose Confirmation HTS to Identify Inhibitors of Platelet Dense Granule Release. [Related pubchem assays: 1663 (Primary HTS), 1678 (Summary of Project)]; assay type: functional
# [10] = target: Luciferin 4-monooxygenase (Photinus pyralis, UniProt P08659); experiment: firefly luciferase enzyme inhibitors, dose response, biochemical, luminescence (AID 1891)
# INS1 = experiment: beta cell apoptosis inhibitors, cytokine rescue, dose response, luminescence, retest (AID 449756); assay type: functional, cell-based; conditions: Rattus norvegicus;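 also: cell death triggered by IL-1 beta plus TNF-alpha plus IFN-gamma mixture; protective hits raise ATP signal compared with cytokine alone wells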
# Protein skinhead-1 = target: T1, Protein skinhead-1 (Caenorhabditis elegans, UniProt P34707); assay type: functional
# T1 sequence (P34707 whole entry): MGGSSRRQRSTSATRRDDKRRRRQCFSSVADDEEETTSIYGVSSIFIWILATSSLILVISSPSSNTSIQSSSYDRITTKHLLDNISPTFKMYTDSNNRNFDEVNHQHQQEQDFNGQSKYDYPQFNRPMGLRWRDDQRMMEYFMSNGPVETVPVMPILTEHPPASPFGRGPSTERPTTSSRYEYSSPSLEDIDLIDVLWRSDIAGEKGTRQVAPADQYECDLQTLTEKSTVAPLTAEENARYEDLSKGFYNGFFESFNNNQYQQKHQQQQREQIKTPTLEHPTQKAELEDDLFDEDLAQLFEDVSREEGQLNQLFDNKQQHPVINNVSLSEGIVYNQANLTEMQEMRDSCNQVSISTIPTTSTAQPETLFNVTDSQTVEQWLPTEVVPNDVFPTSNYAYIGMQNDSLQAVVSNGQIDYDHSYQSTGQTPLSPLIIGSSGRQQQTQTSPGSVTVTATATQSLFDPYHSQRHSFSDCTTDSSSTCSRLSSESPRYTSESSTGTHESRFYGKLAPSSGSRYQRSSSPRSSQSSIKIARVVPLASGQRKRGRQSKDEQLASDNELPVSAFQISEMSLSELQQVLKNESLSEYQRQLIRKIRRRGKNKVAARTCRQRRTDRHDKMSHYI
# [11] = growth suppression of beta-catenin-knockout colon cells, dose response, cell-based, HCT116, human colon tumor (AID 1045); assay type: functional;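 also: HCT116 colon tumor cells with beta catenin knocked out; cells exposed to compound for 60 hours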
# [12] = Luminescence Cell-Based Dose Retest to Confirm Inhibitors of Cancer Stem Cells. [Related pubchem assays (depositor defined):AID2717, AID2721]; assay type: functional; conditions: Homo sapiens
# [13] = growth suppression of PTEN-null colon cells, dose response, cell-based, HCT116 PTEN knockout (AID 1047); assay type: functional;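 also: HCT116 colon tumor cells with PTEN knocked out; cells exposed to compound for 60 hours before readout; potency for loss of cell viability measured by luminescence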
# [14] = inhibitors of intracellular T. cruzi replication, confirmation, NIH3T3 host cells, beta-gal luminescence (AID 2044); assay type: functional, cell-based;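 also: intracellular parasites grown in NIH/3T3 mouse fibroblasts as host cells; luminescent beta-galactosidase reporter signal from transgenic T. cruzi replicating inside host cells; inhibitors lower the luminescence signal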
# [15] = cytotoxicity toward NIH3T3 fibroblasts, dose response, counter-screen, cell-based, ATP luminescence, mouse fibroblasts (AID 2010); assay type: functional;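 also: cells exposed to compound for about 90 hours before reading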
# [16] = target: T2, Calpain-2 catalytic subunit (Sus scrofa, UniProt P43367); experiment: pig calpain II inhibitor potency, dose response, biochemical, fluorogenic peptide substrate (AID 1420); assay type: functional
# T2 sequence (P43367 whole entry): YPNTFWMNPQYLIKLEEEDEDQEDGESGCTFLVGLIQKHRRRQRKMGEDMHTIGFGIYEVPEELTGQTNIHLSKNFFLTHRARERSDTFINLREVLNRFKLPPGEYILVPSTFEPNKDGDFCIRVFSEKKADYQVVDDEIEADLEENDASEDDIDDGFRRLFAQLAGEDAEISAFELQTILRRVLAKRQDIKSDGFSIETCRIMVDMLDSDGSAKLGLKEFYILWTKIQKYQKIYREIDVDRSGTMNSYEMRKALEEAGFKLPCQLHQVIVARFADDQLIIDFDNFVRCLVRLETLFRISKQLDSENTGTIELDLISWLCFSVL
# [17] = control 3'UTR Renilla luciferase suppression, dose response, counter-screen for Shn3 inhibitor project, cell-based, Clone20-Shn3RL, cherry-picked (AID 624133); assay type: functional
# [18] = Shn3 3'UTR reporter inhibitors, dose response, cell-based, Clone20 osteoblasts, firefly luciferase, cherry-picked (AID 624132); assay type: functional;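 also: firefly luciferase luminescence from reporter carrying the Shn3 3'UTR in osteoblasts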
# Cytochrome P450 3A4 = Cytochrome P450 3A4 (Homo sapiens, UniProt P08684);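 also: CYP3A4 tested as one member of a cytochrome P450 panel screen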
# Cytochrome P450 2C19 = Cytochrome P450 2C19 (Homo sapiens, UniProt P33261); experiment: Cytochrome panel assay with activity outcomes. Panel member name: p450-cyp2c19 Compounds with AC50 equal or less than 10 uM are considered active; assay type: functional
# [19] = target: T3, Heat shock factor protein 1 (Mus musculus, UniProt P38532); experiment: HSF1 potentiators in luciferase reporter cells, confirmation, cell-based, NIH3T3, luminescence, dose retest (AID 435004); assay type: functional;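 also: stress induced by proteasome inhibitor MG132 added 30 min after compound; luciferase reporter driven by HSF1 response element in NIH3T3 cells; actives raise luminescence as potentiators of the MG132 stress response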
# T3 sequence (P38532 whole entry): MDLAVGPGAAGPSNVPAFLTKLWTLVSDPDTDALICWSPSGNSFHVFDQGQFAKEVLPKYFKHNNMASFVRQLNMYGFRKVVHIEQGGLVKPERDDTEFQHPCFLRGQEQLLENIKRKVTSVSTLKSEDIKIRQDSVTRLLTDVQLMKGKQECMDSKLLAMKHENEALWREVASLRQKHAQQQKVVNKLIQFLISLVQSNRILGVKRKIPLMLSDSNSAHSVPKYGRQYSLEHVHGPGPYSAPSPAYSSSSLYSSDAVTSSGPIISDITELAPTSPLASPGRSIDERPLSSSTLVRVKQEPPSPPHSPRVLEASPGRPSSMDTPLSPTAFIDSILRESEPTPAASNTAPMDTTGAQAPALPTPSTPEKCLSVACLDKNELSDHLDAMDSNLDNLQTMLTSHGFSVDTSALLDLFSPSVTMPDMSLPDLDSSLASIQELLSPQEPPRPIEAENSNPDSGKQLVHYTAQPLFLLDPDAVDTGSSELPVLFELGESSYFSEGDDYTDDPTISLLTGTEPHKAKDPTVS
# Sequence of Cytochrome P450 2C19 (P33261 whole entry): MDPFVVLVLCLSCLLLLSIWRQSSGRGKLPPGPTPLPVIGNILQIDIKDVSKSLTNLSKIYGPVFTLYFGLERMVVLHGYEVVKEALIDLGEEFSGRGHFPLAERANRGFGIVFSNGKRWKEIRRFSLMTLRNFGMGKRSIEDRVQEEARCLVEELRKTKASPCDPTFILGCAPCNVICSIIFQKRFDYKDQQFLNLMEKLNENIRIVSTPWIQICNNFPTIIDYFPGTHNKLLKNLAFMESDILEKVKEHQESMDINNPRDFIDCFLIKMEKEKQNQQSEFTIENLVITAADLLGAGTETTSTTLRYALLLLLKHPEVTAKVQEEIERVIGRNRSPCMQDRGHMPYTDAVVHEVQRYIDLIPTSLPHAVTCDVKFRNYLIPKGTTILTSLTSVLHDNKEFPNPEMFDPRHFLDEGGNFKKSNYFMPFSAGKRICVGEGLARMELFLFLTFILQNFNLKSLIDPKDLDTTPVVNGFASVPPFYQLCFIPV
# Sequence of Cytochrome P450 3A4 (P08684 whole entry): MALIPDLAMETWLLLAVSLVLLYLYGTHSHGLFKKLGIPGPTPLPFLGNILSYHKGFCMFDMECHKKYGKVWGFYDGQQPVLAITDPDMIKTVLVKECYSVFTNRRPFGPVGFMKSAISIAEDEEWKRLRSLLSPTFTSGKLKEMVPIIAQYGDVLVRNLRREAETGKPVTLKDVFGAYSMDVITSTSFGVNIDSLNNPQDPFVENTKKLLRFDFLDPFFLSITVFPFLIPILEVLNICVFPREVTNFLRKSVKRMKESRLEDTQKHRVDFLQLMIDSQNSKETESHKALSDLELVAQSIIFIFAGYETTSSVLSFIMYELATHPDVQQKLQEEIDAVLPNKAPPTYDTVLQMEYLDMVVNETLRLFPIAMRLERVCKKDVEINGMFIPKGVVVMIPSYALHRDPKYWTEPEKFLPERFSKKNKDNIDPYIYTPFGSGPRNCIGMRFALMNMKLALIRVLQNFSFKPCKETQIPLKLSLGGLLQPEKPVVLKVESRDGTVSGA
# Sequence of Luciferin 4-monooxygenase (P08659 whole entry): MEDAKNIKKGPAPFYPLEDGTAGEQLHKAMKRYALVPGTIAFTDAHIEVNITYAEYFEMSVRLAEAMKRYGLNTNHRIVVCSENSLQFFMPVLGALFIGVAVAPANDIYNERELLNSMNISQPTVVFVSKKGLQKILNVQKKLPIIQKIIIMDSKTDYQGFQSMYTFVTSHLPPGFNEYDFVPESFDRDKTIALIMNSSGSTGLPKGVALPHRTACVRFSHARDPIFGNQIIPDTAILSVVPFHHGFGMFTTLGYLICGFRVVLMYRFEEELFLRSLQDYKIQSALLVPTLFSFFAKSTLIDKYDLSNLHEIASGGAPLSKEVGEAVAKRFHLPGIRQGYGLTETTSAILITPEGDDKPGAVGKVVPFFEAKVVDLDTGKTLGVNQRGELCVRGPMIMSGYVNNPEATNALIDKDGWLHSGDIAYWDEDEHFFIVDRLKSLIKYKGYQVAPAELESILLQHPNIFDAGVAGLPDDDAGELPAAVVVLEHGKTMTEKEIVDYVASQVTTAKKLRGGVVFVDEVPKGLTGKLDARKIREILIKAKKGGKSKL
smiles,measurement,setting,value
CC(=C/c1ccccc1)/C=N/n1cnnc1,EC50,[1],11 µM (active)
same,EC50,[2],20.4 µM (active)
same,EC50,[3],13.5 µM (active)
O=C1Nc2ccccc2/C1=C1\SC(=S)N(Cc2ccccc2Cl)C1=O,EC50,BJ [4],> 150 µM (not active)
same,EC50,BJ [5],10.8 µM (inconclusive)
same,EC50,BJ [6],> 75 µM (inconclusive)
same,EC50,[7],23 µM (active)
Fc1ccc(CSc2ccc3nnc(-c4cccnc4)n3n2)cc1,IC50,H9c2,> 79 µM (inactive)
O=[N+]([O-])c1ccc(N=Nc2c(Cl)cc(O)cc2Cl)cc1,AC50,[8],0.574 µM (active)
same,EC50,BJ [4],4.44 µM (active)
same,EC50,BJ [5],5.98 µM (active)
same,EC50,BJ [6],5.78 µM (active)
same,EC50,[9],1.98 µM (active)
same,EC50,[10],0.137 µM (active)
same,EC50,[7],4.74 µM (active)
same,AC50,INS1,1.73 µM (active)
O=C(CN1CCCC1)Nc1sc2c(c1C(=O)Nc1ccc(Br)cc1)CCC2,IC50,Protein skinhead-1,> 100 µM (inactive)
O=C(CCc1nc(O)c2ccccc2n1)NNC(=O)c1cccc(Cl)c1,IC50,H9c2,> 79 µM (inactive)
COc1ccc(-c2cc(=O)oc3cc(OCC(=O)N(C)C)ccc23)cc1,IC50,Protein skinhead-1,> 100 µM (inactive)
Cc1cccc(Nc2nc(N)c([N+](=O)[O-])c(N3CC(C)CC(C)C3)n2)c1 (configuration not stated),AC50,[8],7.38 µM (active)
same,EC50,[11],15.1 µM (active)
same,AC50,[12],6.36 µM (active)
same,EC50,[13],13.1 µM (active)
same,AC50,INS1,8.89 µM (active)
CCOc1cc(CNCCSc2nnnn2C)cc(Br)c1OCc1ccccc1F,IC50,Protein skinhead-1,24.1 µM (active)
same,EC50,[14],2.13 µM (active)
same,EC50,[15],> 60 µM (not active)
O=C(Nc1ccc2c(c1)CN(Cc1ccco1)CC2)C1CCCO1 (configuration not stated),IC50,Protein skinhead-1,> 100 µM (inactive)
Cc1ccc2nc(NC(=O)/C=C/c3ccc4c(c3)OCO4)sc2c1,EC50,[11],4.66 µM (active)
same,EC50,[13],4.16 µM (active)
same,AC50,INS1,3.6 µM (active)
COc1cccc(C(=O)Nc2cccc(-c3nnc(-c4ccco4)o3)c2)c1,IC50,H9c2,28.2 µM (active)
same,IC50,[16],> 50 µM (not active)
Cn1c(-c2ccc(Cl)cc2)cnc1N,IC50,H9c2,> 79 µM (inactive)
CCOC(=O)N1CCN(C(=O)CSc2nc(O)c3cnn(-c4ccc(C)cc4)c3n2)CC1,IC50,H9c2,31.6 µM (inactive)
O=C(Nc1ccc(F)cc1)C1CCN(c2ncnc3c2nc2n3CCCCC2)CC1,EC50,[1],17 µM (active)
same,EC50,[2],16.9 µM (active)
same,EC50,[3],15.8 µM (active)
Cc1ccc(C)c(Nc2nc3ccc(C)cc3n3cnnc23)c1,EC50,[1],14.9 µM (active)
same,EC50,[2],> 120 µM (not active)
same,EC50,[3],> 120 µM (not active)
COc1ccc(C2=Nn3c(nnc3-c3ccccc3)SC2)cc1OC,EC50,[1],54.9 µM (active)
same,EC50,[2],> 120 µM (not active)
same,EC50,[3],0.318 µM (active)
S=C(Nc1ccccc1)Nc1ccc(OCc2ccc(Cl)cc2Cl)cc1,AC50,[17],0.406 µM (active)
same,AC50,[18],0.405 µM (active)
CCC1=Nc2cc(C(=O)NCCN3CCOCC3)ccc2Sc2ccccc21,EC50,BJ [4],> 150 µM (not active)
same,EC50,BJ [5],> 150 µM (not active)
same,EC50,BJ [6],> 150 µM (not active)
same,EC50,[7],> 150 µM (not active)
O=C1/C(=C/c2ccccc2)CCCc2ccccc21,IC50,Protein skinhead-1,17.9 µM (active)
COc1ccc(Cc2nnc(O)c3ccccc23)cc1OC,IC50,H9c2,7.28 µM (active)
same,AC50,Cytochrome P450 3A4,22.4 µM (inconclusive)
same,AC50,Cytochrome P450 2C19,31.6 µM (inconclusive)
CN(CCCN1CCOCC1)C(=O)c1cc(COc2cccc(C(F)(F)F)c2)on1,IC50,Protein skinhead-1,> 100 µM (inactive)
C=Cn1ccnc1P(=S)(c1ccc2c(c1)c1ccccc1n2CC)c1nccn1C=C,EC50,[11],4.28 µM (active)
same,AC50,[12],1.5 µM (active)
same,EC50,[13],4.12 µM (active)
O=C1/C(=C/c2cccnc2)CCC/C1=C\c1cccnc1,EC50,[11],1.09 µM (active)
same,EC50,[13],1.43 µM (active)
same,AC50,INS1,3.04 µM (active)
COc1ccc(-c2csc(/C(C#N)=C/Nc3cc4oc5ccccc5c4cc3OC)n2)cc1,EC50,[1],> 120 µM (not active)
same,EC50,[2],91.7 µM (active)
same,EC50,[3],> 120 µM (not active)
CC(=O)Nc1ccc(S(=O)(=O)NCc2ccc3c(c2)cc(C)n3C)cc1,IC50,Protein skinhead-1,> 100 µM (inactive)
Clc1ccc(Cn2cc(/C=N/n3cnnc3)c3ccccc32)cc1,EC50,[1],14.6 µM (active)
same,EC50,[2],> 120 µM (not active)
same,EC50,[3],13.1 µM (active)
CC(OC(=O)Cn1[nH]c(=O)c2ccccc2c1=O)C(=O)Nc1ccc(F)cc1Cl (configuration not stated),IC50,H9c2,> 79 µM (inactive)
C/C(=N\NC(=O)CC1N=C(Cc2ccccc2)NNC1=O)c1ccc(C)cc1 (configuration not stated),EC50,BJ [4],> 150 µM (not active)
same,EC50,BJ [5],> 150 µM (not active)
same,EC50,BJ [6],> 150 µM (inconclusive)
same,EC50,[19],> 260 µM (inactive)
same,EC50,[7],44.3 µM (active)
Cc1cccc(-[n+]2c(-c3cccc(Br)c3)[nH]c3nc4ccccc4nc32)c1,EC50,[1],13.2 µM (active)
same,EC50,[2],13.7 µM (active)
same,EC50,[3],10.5 µM (active)
Nc1nnc(SCC(=O)N2CCN(c3cccc(Cl)c3)CC2)n1-c1ccccc1,IC50,Protein skinhead-1,> 100 µM (inactive)
Cc1nn(-c2ccccc2)c(N2CCCC2)c1/C=N/NC(=O)c1cc(-c2ccccn2)nc2ccccc12,IC50,H9c2,> 79 µM (inactive)
Cc1cc(S(=O)(=O)NCc2ccccc2)ccc1OCC(=O)Nc1cccc([N+](=O)[O-])c1,EC50,[11],14.9 µM (active)
same,EC50,[13],13 µM (active)
Cn1c(-n2c(CCCN3C(=O)c4ccccc4C3=O)nc3ccccc3c2=O)nc2ccccc21,IC50,H9c2,15.3 µM (active)
